The results in this text go back to the supplement of paper PMC11061612.

Common to all, as to experiment: combination Emax (second highest fraction inhibited in the dose matrix, 72 h); higher = more inhibition; extreme values may be limits of the assay
Experiment [1] relates to A2058 (Melanoma). In short, it runs like this:
(§1)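 Bliss excess equals the observed combination effect minus the expected value EA + EB − EA·EB, where EA and EB are the effects of each agent alone. Combination Emax is the second-highest inhibition within the matrix. Inhibition was scaled from CellTiter-Glo 2.0 luminescence, with 0 set by vehicle wells and 1 by blank wells, after 72 hours of two-drug dosing of cells plated in 1536-well plates.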

The test system of experiment [2] is FADU (Head and Neck Carcinoma). In short, it runs like this: as §1
For experiment [3], the system named is GB-1 (Glioblastoma). In short, it runs like this: as §1
Experiment [4] deals with GP5d (Colorectal Carcinoma). In short, it runs like this: as §1
Experiment [5] concerns HCT-15 (Colorectal Carcinoma). In short, it runs like this: as §1
In experiment [6] the test system is HSC-39 (Gastric Carcinoma). The method in brief: as §1
Experiment [7] relates to L-1236 (Hodgkin's Lymphoma). In short, it runs like this: as §1
Experiment [8] concerns MKN45 (Gastric Carcinoma). The method in brief: as §1
The test system of experiment [9] is NCI-H446 (Small Cell Lung Carcinoma). In short, it runs like this: as §1
The subject of experiment [10] is OPM-2 (Plasma Cell Myeloma). The method in brief:
as §1

In experiment [11] the test system is OVMIU (Ovarian Carcinoma). The method in brief: as §1
Experiment [12] concerns PC-3_[JPC-3] (Lung Adenocarcinoma). In short, it runs like this: as §1
Experiment [13] deals with PSN1 (Pancreatic Carcinoma). In short, it runs like this:
as §1

The test system of experiment [14] is RCM-1 (Colorectal Carcinoma). In short, it runs like this: as §1
Experiment [15] has as its system RERF-GC-1B (Gastric Carcinoma). In short, it runs like this:
as §1

Experiment [16] concerns RKN (Other Solid Carcinomas). The method in brief: as §1
Experiment [17] relates to SHP-77 (Small Cell Lung Carcinoma). The method in brief:
as §1

Experiment [18] concerns SU-DHL-10 (B-Cell Non-Hodgkin's Lymphoma). The method in brief:
as §1

In experiment [19] the test system is TE-8 (Esophageal Squamous Cell Carcinoma). The method in brief:
as §1

In experiment [20] the test system is VAL (B-Cell Non-Hodgkin's Lymphoma). In short, it runs like this:
as §1

Regarding `Cc1c2c(nn1C)CSCc1cc(n(C)n1)CSc1cc(c3ccccc3c1)OCCCc1c(C(=O)O)n(C)c3c-2c(Cl)ccc13` [AZD5991] + Cc1cc2ncnn2cc1Nc1ncc2c(n1)n(C1CCOCC1)c(=O)n2C [AZD7648] (first compound max 1 µM, 7x7, partner max 10 µM), the “combination Emax” value in experiment [1] was 0.452; in [2], 0.963; in experiment [3], 0.264; in [4], 0.824; in experiment [5], 0.251; in experiment [6] it was 1. In addition, the “combination Emax” value in [7] came out at 0.426; in experiment [8] it was 0.504; in experiment [9] it was 0.648; in [10], 1; in experiment [11] it was 0.547; in [12], 0.289. The “combination Emax” value in experiment [13] is 0.406; in [14], 0.241; in experiment [15] it was 0.987; in experiment [16], 0.219; in [17], 0.263; in [18], 1. In addition, the “combination Emax” value in [19] was 0.427; in [20], 0.744.
Consider `Cc1c2c(nn1C)CSCc1cc(n(C)n1)CSc1cc(c3ccccc3c1)OCCCc1c(C(=O)O)n(C)c3c-2c(Cl)ccc13` [AZD5991] + C[C@@H](Nc1cc(F)cc(F)c1)c1cc(C(=O)N(C)C)cc2c(=O)cc(N3CCOCC3)oc12 [AZD8186] (first compound max 1 µM, 7x7, partner max 3 µM), for which the “combination Emax” value in [1] worked out at 0.821; in [2], 0.968; in [3], 0.219; in experiment [4], 0.817; in experiment [5] it was 0.194; in experiment [6], 1. In addition, the “combination Emax” value came out at 0.291 in [7]; 0.39 in [8]; 0.882 in experiment [9]; 1 in experiment [10]; 0.447 in [11]; 0.348 in experiment [12]. The “combination Emax” value in experiment [13] amounted to 0.375; in experiment [14] it was 0.285; in [15] it was 0.98; in experiment [16], 0.289; in [17] it was 0.289; in experiment [18], 1. Moreover, the “combination Emax” value was determined as 0.373 in experiment [19] and 0.744 in experiment [20].
On to `COc1nnc2ccc(N3CCC(c4ccc(OCCN5CCN(C)C(=O)[C@H]5C)cc4)CC3)nn12` [AZD5153] + CCN(CCO)CCCOc1ccc2c(Nc3cc(CC(=O)Nc4cccc(F)c4)[nH]n3)ncnc2c1 [AZD2811] (first compound max 1 µM, 7x7, partner max 1 µM), for which the “combination Emax” value was 0.788 in experiment [1]; 0.533 in experiment [2]; 0.243 in [3]; 0.728 in [4]; 0.807 in [5]; 0.952 in experiment [6]. Also, the “combination Emax” value in experiment [7] was found to be 0.988; in [8] it was 0.556; in experiment [9], 0.962; in experiment [10] it was 1; in [11], 0.706; in experiment [12] it was 0.425. The “combination Emax” value in experiment [13] is 0.566; in experiment [14], 0.612; in [15], 0.685; in experiment [16], 0.44; in [17], 0.432; in experiment [18] it was 1. Moreover, the “combination Emax” value turned out to be 0.556 in experiment [19] and 0.727 in experiment [20].
For the molecule `CN(CCO)CC[C@H](CSc1ccccc1)Nc1ccc(S(=O)(=O)NC(=O)c2ccc(N3CCC([C@@H](O)c4ccccc4-c4ccc(Cl)cc4)CC3)cc2)cc1S(=O)(=O)C(F)(F)F` [AZD4320] + C=CCn1c(=O)c2cnc(Nc3ccc(N4CCN(C)CC4)cc3)nc2n1-c1cccc(C(C)(C)O)n1 [AZD1775] (first compound max 1 µM, partner max 1 µM), the “combination Emax” value in experiment [1] stood at 0.355; in experiment [2] it was 0.453; in [3] it was 0.223; in experiment [4], 0.782; in experiment [5], 0.456; in experiment [6], 0.958. The “combination Emax” value turned out to be 1 in [7]; 0.826 in experiment [8]; 0.963 in experiment [9]; 0.955 in [10]; 0.976 in experiment [11]; 0.411 in experiment [12]. Besides, the “combination Emax” value in experiment [13] came to 0.592; in experiment [14], 0.717; in [15], 0.962; in [16] it was 0.315; in [17], 0.65; in experiment [18] it was 0.992. Also, the “combination Emax” value in experiment [19] was found to be 0.932; in experiment [20], 1.
For `Cc1c2c(nn1C)CSCc1cc(n(C)n1)CSc1cc(c3ccccc3c1)OCCCc1c(C(=O)O)n(C)c3c-2c(Cl)ccc13` [AZD5991] + CN(C)CCCOc1ccc(-c2ccc3ncc4c(c3c2)n(C2CCOCC2)c(=O)n4C)cn1 [AZD0156] (first compound max 1 µM, 7x7, partner max 1 µM), the “combination Emax” value in experiment [1] was 0.465; in [2], 0.972; in [3], 0.186; in experiment [4] it was 0.817; in experiment [5], 0.197; in experiment [6], 1. The “combination Emax” value came to 0.331 in experiment [7]; 0.356 in [8]; 0.67 in experiment [9]; 1 in [10]; 0.359 in experiment [11]; 0.279 in experiment [12]. Besides, the “combination Emax” value in experiment [13] was found to be 0.397; in experiment [14], 0.232; in experiment [15], 0.978; in [16] it was 0.173; in [17], 0.284; in experiment [18] it was 1. The entries for the “combination Emax” value in experiment [19] and in experiment [20] were 0.379 and 0.657, respectively.
For the molecule `CS(=O)(=O)CCNCc1ccc(-c2ccc3ncnc(Nc4ccc(OCc5cccc(F)c5)c(Cl)c4)c3c2)o1` [Lapatinib] + NC1(c2ccc(-c3nc4ccn5c(=O)[nH]nc5c4cc3-c3ccccc3)cc2)CCC1 [MK-2206] (first compound max 10 µM, 7x7, partner max 10 µM), the “combination Emax” value in [1] worked out at 0.982; in [6], 0.933; in experiment [7] it was 0.888; in [8], 0.617; in experiment [9] it was 0.962; in experiment [10], 0.972. Moreover, the “combination Emax” value worked out at 0.891 in experiment [11]; 0.927 in experiment [12]; 0.562 in [13]; 0.514 in experiment [14]; 0.943 in [15]; 0.346 in [16]. In addition, the “combination Emax” value is 0.633 in experiment [17], 0.52 in [19] and 0.898 in experiment [20].
